Measurements taken from patent US6613718B2, “Aryl ether derivatives and processes for their preparation and herbicidal and desiccant compositions containing them” (Ishihara Sangyo Kaisha, Ltd., priority 2001, dated 2003).

Columns and labels:
[1] = system: barnyardgrass (Echinochloa crus-galli, ECHCG); assay: Pre-emerge greenhouse herbicide activity screening, phytotoxicity rating; format: in vivo; conditions: 14 days after application
Outline: (§1)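 Herbicidal effect was recorded as percent-style phytotoxicity, 0 (none) to 100 (complete plant death), two weeks post-application. Applications were made over soil (pre-emerge, sown a day earlier) or over 2-3 leaf plants (post-emerge), using acetone solutions at 15–1000 g ai/ha.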

[2] = system: common ragweed (Ambrosia artemisiifolia L., AMBEL); assay: as above; format: in vivo; conditions: 14 days after application
Outline: as §1

[3] = system: green foxtail (Setaria viridis, SETVI); assay: as above; format: in vivo; conditions: 14 days after application
Outline: as §1

[4] = system: ivyleaf morningglory (Ipomoea hederacea, IPOHE); assay: as above; format: in vivo; conditions: 14 days after application
Outline: as §1

[5] = system: johnsongrass (Sorghum halepense, SORHA); assay: as above; format: in vivo; conditions: 14 days after application
Outline: as §1

[6] = system: lambsquarters (Chenopodium album, CHEAL); assay: as above; format: in vivo; conditions: 14 days after application
Outline: as §1

[7] = system: large crabgrass (Digitaria sanguinalis, DIGSA); assay: as above; format: in vivo; conditions: 14 days after application
Outline: as §1

[8] = system: redroot pigweed (Amaranthus retroflexus, AMARE); assay: as above; format: in vivo; conditions: 14 days after application
Outline: as §1

[9] = system: sicklepod (Cassia obtusifolia, CASOB); assay: as above; format: in vivo; conditions: 14 days after application
Outline: as §1

[10] = system: velvetleaf (Abutilon theophrasti, ABUTH); assay: as above; format: in vivo; conditions: 14 days after application
Outline: as §1

[11] = system: field corn (Zea mays L., var. Dekalb 535, CORN); assay: Pre-emerge greenhouse screening, crop safety (phytotoxicity rating); format: in vivo; conditions: 14 days after application
Outline: as §1

[12] = system: soybean (Glycine max L., var. Pella 86, SOY); assay: as above; format: in vivo; conditions: 14 days after application
Outline: as §1

[13] = system: upland rice (Oryza sp., var.Tebonnet, RICE); assay: as above; format: in vivo; conditions: 14 days after application
Outline: as §1

[14] = system: barnyardgrass (Echinochloa crus-galli, ECHCG); assay: Post-emerge greenhouse herbicide activity screening, phytotoxicity rating; format: in vivo; conditions: 14 days after application
Outline: as §1

[15] = system: common ragweed (Ambrosia artemisiifolia L., AMBEL); assay: as above; format: in vivo
Outline: as §1

[16] = system: green foxtail (Setaria viridis, SETVI); assay: as above; format: in vivo
Outline: as §1

[17] = system: ivyleaf morningglory (Ipomoea hederacea, IPOHE); assay: as above; format: in vivo; conditions: 14 days after application
Outline: as §1

[18] = system: johnsongrass (Sorghum halepense, SORHA); assay: as above; format: in vivo; conditions: 14 days after application
Outline: as §1

[19] = system: lambsquarters (Chenopodium album, CHEAL); assay: as above; format: in vivo
Outline: as §1

[20] = system: large crabgrass (Digitaria sanguinalis, DIGSA); assay: as above; format: in vivo; conditions: 14 days after application
Outline: as §1

[21] = system: redroot pigweed (Amaranthus retroflexus, AMARE); assay: as above; format: in vivo
Outline: as §1

[22] = system: sicklepod (Cassia obtusifolia, CASOB); assay: as above; format: in vivo
Outline: as §1

[23] = system: velvetleaf (Abutilon theophrasti, ABUTH); assay: as above; format: in vivo; conditions: 14 days after application
Outline: as §1

[24] = Post-emerge greenhouse screening, crop safety / corn selectivity (phytotoxicity rating); format: in vivo, Zea mays L.; conditions: Zea mays (field corn), in vivo
Outline: as §1

[25] = system: field corn (Zea mays L., var. Dekalb 535, CORN); assay: as above; format: in vivo; conditions: 14 days after application
Outline: as §1

[26] = system: soybean (Glycine max L., var. Pella 86, SOY); assay: Post-emerge greenhouse screening, crop safety (phytotoxicity rating); format: in vivo; conditions: 14 days after application
Outline: as §1

[27] = system: upland rice (Oryza sp., var.Tebonnet, RICE); assay: as above; format: in vivo; conditions: 14 days after application
Outline: as §1

[28] = 125 g ai/ha, 14 days after application
[29] = 250 g ai/ha, 14 days after application

Cn1c(C(F)(F)F)cc(=O)n(-c2cc(Oc3ncccn3)c(Cl)cc2F)c1=S [Compound 1-1, 3-[4-Chloro-2-fluoro-5-(2-pyrimidinyloxy)phenyl]-2,3-dihydro-1-methyl-2-thioxo-6-(trifluoromethyl)-4(1H)-pyrimidinone]
ECHCG phytotoxicity rating (0-100 scale) ([1]; 125 g ai/ha): 100
ECHCG phytotoxicity rating (0-100 scale) ([1]; 250 g ai/ha): 100
AMBEL phytotoxicity rating (0-100 scale) ([2]; 125 g ai/ha): 100
AMBEL phytotoxicity rating (0-100 scale) ([2]; 250 g ai/ha): 100
SETVI phytotoxicity rating (0-100 scale) ([3]; 125 g ai/ha): 100
SETVI phytotoxicity rating (0-100 scale) ([3]; 250 g ai/ha): 100
IPOHE phytotoxicity rating (0-100 scale) ([4]; 125 g ai/ha): 100
IPOHE phytotoxicity rating (0-100 scale) ([4]; 250 g ai/ha): 100
SORHA phytotoxicity rating (0-100 scale) ([5]; 125 g ai/ha): 100
SORHA phytotoxicity rating (0-100 scale) ([5]; 250 g ai/ha): 100
CHEAL phytotoxicity rating (0-100 scale) ([6]; 125 g ai/ha): 100
CHEAL phytotoxicity rating (0-100 scale) ([6]; 250 g ai/ha): 100
DIGSA phytotoxicity rating (0-100 scale) ([7]; 125 g ai/ha): 100
DIGSA phytotoxicity rating (0-100 scale) ([7]; 250 g ai/ha): 100
AMARE phytotoxicity rating (0-100 scale) ([8]; 125 g ai/ha): 100
AMARE phytotoxicity rating (0-100 scale) ([8]; 250 g ai/ha): 100
CASOB phytotoxicity rating (0-100 scale) ([9]; 125 g ai/ha): 100
CASOB phytotoxicity rating (0-100 scale) ([9]; 250 g ai/ha): 100
ABUTH phytotoxicity rating (0-100 scale) ([10]; 125 g ai/ha): 100
ABUTH phytotoxicity rating (0-100 scale) ([10]; 250 g ai/ha): 100
CORN crop damage, phytotoxicity rating (0-100 scale) ([11]; 125 g ai/ha): 100
CORN crop damage, phytotoxicity rating (0-100 scale) ([11]; 250 g ai/ha): 100
SOY crop damage, phytotoxicity rating (0-100 scale) ([12]; 125 g ai/ha): 100
SOY crop damage, phytotoxicity rating (0-100 scale) ([12]; 250 g ai/ha): 80
RICE crop damage, phytotoxicity rating (0-100 scale) ([13]; 125 g ai/ha): 100
RICE crop damage, phytotoxicity rating (0-100 scale) ([13]; 250 g ai/ha): 100
ECHCG phytotoxicity rating (0-100 scale) ([14]; 125 g ai/ha): 100
ECHCG phytotoxicity rating (0-100 scale) ([14]; 250 g ai/ha): 100
AMBEL phytotoxicity rating (0-100 scale) ([15]; 31.3 g ai/ha): 75
AMBEL phytotoxicity rating (0-100 scale) ([15]; 62.5 g ai/ha): 98
AMBEL phytotoxicity rating (0-100 scale) [15, 28]: 99
AMBEL phytotoxicity rating (0-100 scale) [15, 29]: 100
SETVI phytotoxicity rating (0-100 scale) ([16]; 31.3 g ai/ha): 85
SETVI phytotoxicity rating (0-100 scale) ([16]; 62.5 g ai/ha): 99
SETVI phytotoxicity rating (0-100 scale) [16, 28]: 100
SETVI phytotoxicity rating (0-100 scale) [16, 29]: 100
IPOHE phytotoxicity rating (0-100 scale) ([17]; 125 g ai/ha): 100
IPOHE phytotoxicity rating (0-100 scale) ([17]; 250 g ai/ha): 100
SORHA phytotoxicity rating (0-100 scale) ([18]; 125 g ai/ha): 95
SORHA phytotoxicity rating (0-100 scale) ([18]; 250 g ai/ha): 98
CHEAL phytotoxicity rating (0-100 scale) ([19]; 31.3 g ai/ha): 100
CHEAL phytotoxicity rating (0-100 scale) ([19]; 62.5 g ai/ha): 100
CHEAL phytotoxicity rating (0-100 scale) [19, 28]: 100
CHEAL phytotoxicity rating (0-100 scale) [19, 29]: 100
DIGSA phytotoxicity rating (0-100 scale) ([20]; 125 g ai/ha): 95
DIGSA phytotoxicity rating (0-100 scale) ([20]; 250 g ai/ha): 90
AMARE phytotoxicity rating (0-100 scale) ([21]; 31.3 g ai/ha): 100
AMARE phytotoxicity rating (0-100 scale) ([21]; 62.5 g ai/ha): 100
AMARE phytotoxicity rating (0-100 scale) [21, 28]: 100
AMARE phytotoxicity rating (0-100 scale) [21, 29]: 100
CASOB phytotoxicity rating (0-100 scale) ([22]; 31.3 g ai/ha): 95
CASOB phytotoxicity rating (0-100 scale) ([22]; 62.5 g ai/ha): 99
CASOB phytotoxicity rating (0-100 scale) [22, 28]: 99
CASOB phytotoxicity rating (0-100 scale) [22, 29]: 99
ABUTH phytotoxicity rating (0-100 scale) ([23]; 125 g ai/ha): 100
ABUTH phytotoxicity rating (0-100 scale) ([23]; 250 g ai/ha): 100
corn phytotoxicity rating (0-100 scale) at 14 days ([24]; 31.3 g ai/ha): 8
corn phytotoxicity rating (0-100 scale) at 14 days ([24]; 62.5 g ai/ha): 8
CORN crop damage, phytotoxicity rating (0-100 scale) ([25]; 125 g ai/ha): 10
CORN crop damage, phytotoxicity rating (0-100 scale) ([25]; 250 g ai/ha): 15
SOY crop damage, phytotoxicity rating (0-100 scale) ([26]; 125 g ai/ha): 100
SOY crop damage, phytotoxicity rating (0-100 scale) ([26]; 250 g ai/ha): 100
RICE crop damage, phytotoxicity rating (0-100 scale) ([27]; 125 g ai/ha): 100
RICE crop damage, phytotoxicity rating (0-100 scale) ([27]; 250 g ai/ha): 100
